Results reported in patent US11351172B2, “Pharmaceutical composition and use for applying ribociclib in phosphodiesterase 4-mediated disease treatment of patient and inhibition of phosphodiesterase 4 activity” (Chang Gung University, priority 2019, dated 2022).

Legend:
[1] = system: Human neutrophils; assay: Superoxide anion generation in fMLF-stimulated neutrophils (ferricytochrome c reduction); assay type: cell-based; details: 1 μM, 3 μM and 10 μM; fMLF (0.1 μM)/cytochalasin B (1 μg/ml) stimulated; p<0.001 vs control; n=6; FIG. 2
Method: The informed consent to participate which was approved by the Institutional Review Board are signed by the donors. 50 mL of blood was collected from the median cubital vein of each donor by sterile vacutainer, and was used to isolate neutrophils for the following experiments. Human neutrophils (isolated from whole blood of donors) were incubated with DMSO (as solvent, marked as “−” in the groups at X-axis in FIGS. 2A and 2B) or Ribociclib (0.3-10 μM) for 5 minutes, and then stimulated the neutrophils with or without fMLF (0.1 μM)/cytochalasin B (CB, 1 μg/ml) for another 10 minutes to activate the neutrophils. The absorbance (OD550) of the reaction mixture was then measured by a spectrophotometer at OD 550 nm. The reading of OD550 is used to detect the reduction of ferricytochrome c, which indicates the amount of superoxide anion. Cytochalasin B was sold by Sigma-Aldrich, catalog number #2506; fMLF was sold by Sigma-Aldrich, catalog number #454454; model number of the spectrophotometer is HITACHI U-3010.

[2] = system: IMQ-treated mice; assay: Psoriasis-like symptoms in IMQ-treated mice; assay type: in vivo, BALB/c mice; details: applied on back skin once per day for 5 days before IMQ, FIG. 3
Method: 250 μg or 500 μg of Ribociclib was dissolved in 50 μl of 0.5% (w/v) methylcellulose 400 solution to make a pharmaceutical composition. The Ribociclib concentration of the pharmaceutical composition was 250 μg/50 μl or 500 μg/50 μl and used in the subsequent animal experimental examples 4 and 5. Male BALB/c mice (7-9 weeks of age, the body weight of each mouse is about 25 g) were divided into different groups, and each group has 6 mice. Each mouse was epilation on the back and then treated with 50 μl of solvent (0.5% methylcellulose 400) or 50 μl of the pharmaceutical composition prepared in example 3 (the concentration of Ribociclib is 10 or 20 mg/kg of body weight) by applying on the nude back skin before topical treatment of imiquimod (IMQ, sold by 3M Health Care Limited). And then applying with or without IMQ on the nude back skin of mice to cause psoriasis-like symptom. Each treatment was given once per day for 5 consecutive days. The mice which applying solvent and IMQ is played as the control. The mice which merely applying solvent is played as the blank.

[3] = biological target: T1, PDE3B (Homo sapiens, UniProt Q13370); assay: PDE enzymatic activity, HTRF cAMP dynamic test; assay type: biochemical; details: 0.1 to 30 μM; FIG. 1E
T1 construct: purchased BPS bioscience
T1 sequence (Q13370 whole entry): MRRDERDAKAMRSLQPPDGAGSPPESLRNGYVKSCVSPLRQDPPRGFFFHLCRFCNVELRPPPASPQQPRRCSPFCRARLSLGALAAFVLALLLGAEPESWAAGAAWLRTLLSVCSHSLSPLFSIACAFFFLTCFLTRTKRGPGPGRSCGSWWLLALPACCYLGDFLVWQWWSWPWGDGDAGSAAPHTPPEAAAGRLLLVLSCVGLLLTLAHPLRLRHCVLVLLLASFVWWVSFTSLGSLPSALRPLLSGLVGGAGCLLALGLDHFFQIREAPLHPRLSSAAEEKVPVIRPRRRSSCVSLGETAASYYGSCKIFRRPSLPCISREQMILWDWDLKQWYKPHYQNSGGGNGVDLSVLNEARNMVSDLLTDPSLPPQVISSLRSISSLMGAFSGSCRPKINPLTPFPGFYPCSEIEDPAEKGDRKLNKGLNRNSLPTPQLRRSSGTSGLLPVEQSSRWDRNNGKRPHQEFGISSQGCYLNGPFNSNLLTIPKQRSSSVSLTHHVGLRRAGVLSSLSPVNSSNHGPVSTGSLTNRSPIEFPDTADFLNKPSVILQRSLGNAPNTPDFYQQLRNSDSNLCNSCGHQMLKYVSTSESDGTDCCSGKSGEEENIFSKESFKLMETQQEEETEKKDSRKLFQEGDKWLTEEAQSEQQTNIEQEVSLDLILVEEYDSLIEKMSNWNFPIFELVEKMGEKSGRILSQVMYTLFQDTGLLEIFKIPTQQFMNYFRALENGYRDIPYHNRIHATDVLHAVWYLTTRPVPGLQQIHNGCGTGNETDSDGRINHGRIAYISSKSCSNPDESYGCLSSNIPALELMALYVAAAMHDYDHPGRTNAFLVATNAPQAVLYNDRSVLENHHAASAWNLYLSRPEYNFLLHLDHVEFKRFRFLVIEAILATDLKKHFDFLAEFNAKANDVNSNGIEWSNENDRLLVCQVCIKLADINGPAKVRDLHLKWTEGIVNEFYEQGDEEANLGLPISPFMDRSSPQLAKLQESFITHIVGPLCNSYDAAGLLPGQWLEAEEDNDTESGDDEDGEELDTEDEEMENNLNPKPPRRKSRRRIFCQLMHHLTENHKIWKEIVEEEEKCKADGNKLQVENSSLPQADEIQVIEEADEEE
Method: (§1) Enzymatic activities of PDE subtypes were analyzed according to the user manual of HTRF® package insert cAMP dynamic tests (Cisbio bioassays, catalog number 62AM4PEB). Ribociclib was dissolved in DMSO (as solvent) and then added to PDE assay buffer which contains PDE4A, PDE4B, PDE4C, PDE4D, PDE3B or PDE7A (sold by BPS bioscience). The final concentration of Ribociclib was 0.1 to 30 μM. Then, the mixtures were incubated for 10 minutes at 37° C. PDE assay buffer which was added by DMSO (solvent, marked as “−” in FIGS. 1A-1F) instead of Ribociclib was as a control in this experiment. 60 nM of cAMP was added to each reagent and then incubated for 45 minutes at 37° C. After incubation, cAMP-d2 and anti-cAMP-cryptate were added to each reagent and react at room temperature for 1 hour away from light. Finally, the reagents were quantified by the luminometer (TECAN infinite 200 Pro) to detect enzymatic activities of PDE subtypes.

[4] = biological target: T2, PDE4C (Homo sapiens, UniProt Q08493); assay: PDE enzymatic activity, HTRF cAMP dynamic test; assay type: biochemical; details: 3 μM, 10 μM and 30 μM; compared with DMSO control; n=6; FIG. 1C
T2 construct: purchased BPS bioscience
T2 sequence (Q08493 whole entry): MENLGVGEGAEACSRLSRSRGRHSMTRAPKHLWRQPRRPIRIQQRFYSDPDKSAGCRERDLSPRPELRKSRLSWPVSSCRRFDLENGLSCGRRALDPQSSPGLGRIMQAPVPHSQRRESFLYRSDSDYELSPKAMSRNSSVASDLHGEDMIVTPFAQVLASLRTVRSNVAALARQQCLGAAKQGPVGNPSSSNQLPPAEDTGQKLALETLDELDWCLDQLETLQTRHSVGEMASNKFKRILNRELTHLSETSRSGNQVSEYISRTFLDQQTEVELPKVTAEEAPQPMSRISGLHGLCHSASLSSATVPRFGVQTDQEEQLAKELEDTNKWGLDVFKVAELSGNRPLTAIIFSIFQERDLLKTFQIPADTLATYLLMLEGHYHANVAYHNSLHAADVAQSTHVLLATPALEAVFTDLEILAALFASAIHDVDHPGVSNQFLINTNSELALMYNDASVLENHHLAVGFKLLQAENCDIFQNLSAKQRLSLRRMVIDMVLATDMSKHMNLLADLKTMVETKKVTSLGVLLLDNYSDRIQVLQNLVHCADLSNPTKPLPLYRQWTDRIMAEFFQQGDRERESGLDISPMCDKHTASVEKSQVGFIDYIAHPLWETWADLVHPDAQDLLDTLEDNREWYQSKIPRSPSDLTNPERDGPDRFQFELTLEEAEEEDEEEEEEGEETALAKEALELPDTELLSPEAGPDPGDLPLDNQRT
Method: as §1

[5] = biological target: T3, PDE4B (Homo sapiens, UniProt Q07343); assay: PDE enzymatic activity, HTRF cAMP dynamic test; assay type: biochemical; details: 3 μM, 10 μM and 30 μM; compared with DMSO control; n=6; FIG. 1B
T3 construct: purchased BPS bioscience
T3 sequence (Q07343 whole entry): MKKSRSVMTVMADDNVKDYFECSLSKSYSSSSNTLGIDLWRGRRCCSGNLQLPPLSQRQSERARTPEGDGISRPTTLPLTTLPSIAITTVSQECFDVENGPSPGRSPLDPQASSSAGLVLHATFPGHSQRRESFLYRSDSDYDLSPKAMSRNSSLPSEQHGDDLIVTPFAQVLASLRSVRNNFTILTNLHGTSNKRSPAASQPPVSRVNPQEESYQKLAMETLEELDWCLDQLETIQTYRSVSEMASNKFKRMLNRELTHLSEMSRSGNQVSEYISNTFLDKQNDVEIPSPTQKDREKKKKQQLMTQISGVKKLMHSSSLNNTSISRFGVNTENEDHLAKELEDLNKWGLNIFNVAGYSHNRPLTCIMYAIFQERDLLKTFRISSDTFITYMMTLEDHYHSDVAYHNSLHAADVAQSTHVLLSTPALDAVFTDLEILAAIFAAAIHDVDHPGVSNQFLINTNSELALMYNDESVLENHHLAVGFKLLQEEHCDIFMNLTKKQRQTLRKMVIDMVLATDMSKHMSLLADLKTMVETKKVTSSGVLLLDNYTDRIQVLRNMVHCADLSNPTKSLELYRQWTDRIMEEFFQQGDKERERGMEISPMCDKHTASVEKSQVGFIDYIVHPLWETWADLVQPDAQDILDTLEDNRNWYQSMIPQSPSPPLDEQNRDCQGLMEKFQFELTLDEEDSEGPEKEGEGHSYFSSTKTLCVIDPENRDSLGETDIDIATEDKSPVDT
Method: as §1

[6] = biological target: T4, PDE7A (Homo sapiens, UniProt Q13946); assay: PDE enzymatic activity, HTRF cAMP dynamic test; assay type: biochemical; details: 0.1 to 30 μM; FIG. 1F
T4 construct: purchased BPS bioscience
T4 sequence (Q13946 whole entry): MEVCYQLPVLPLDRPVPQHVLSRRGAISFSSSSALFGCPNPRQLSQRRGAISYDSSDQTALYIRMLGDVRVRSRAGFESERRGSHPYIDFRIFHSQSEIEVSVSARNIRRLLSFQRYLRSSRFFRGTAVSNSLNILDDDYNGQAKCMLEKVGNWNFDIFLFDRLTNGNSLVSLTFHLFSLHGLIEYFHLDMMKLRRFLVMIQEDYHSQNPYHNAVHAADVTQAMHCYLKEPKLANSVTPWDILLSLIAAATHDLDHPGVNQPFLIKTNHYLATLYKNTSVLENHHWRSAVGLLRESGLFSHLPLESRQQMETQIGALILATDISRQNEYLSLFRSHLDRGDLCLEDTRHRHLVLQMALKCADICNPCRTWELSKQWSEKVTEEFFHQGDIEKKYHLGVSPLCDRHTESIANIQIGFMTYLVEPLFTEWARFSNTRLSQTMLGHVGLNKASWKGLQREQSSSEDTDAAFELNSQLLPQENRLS
Method: as §1

[7] = biological target: T5, PDE4A (Homo sapiens, UniProt P27815); assay: PDE enzymatic activity, HTRF cAMP dynamic test; assay type: biochemical; details: 0.1 μM, 0.3 μM, 1 μM, 3 μM and 10 μM; compared with DMSO control; n=6; FIG. 1A
T5 construct: purchased BPS bioscience
T5 sequence (P27815 whole entry): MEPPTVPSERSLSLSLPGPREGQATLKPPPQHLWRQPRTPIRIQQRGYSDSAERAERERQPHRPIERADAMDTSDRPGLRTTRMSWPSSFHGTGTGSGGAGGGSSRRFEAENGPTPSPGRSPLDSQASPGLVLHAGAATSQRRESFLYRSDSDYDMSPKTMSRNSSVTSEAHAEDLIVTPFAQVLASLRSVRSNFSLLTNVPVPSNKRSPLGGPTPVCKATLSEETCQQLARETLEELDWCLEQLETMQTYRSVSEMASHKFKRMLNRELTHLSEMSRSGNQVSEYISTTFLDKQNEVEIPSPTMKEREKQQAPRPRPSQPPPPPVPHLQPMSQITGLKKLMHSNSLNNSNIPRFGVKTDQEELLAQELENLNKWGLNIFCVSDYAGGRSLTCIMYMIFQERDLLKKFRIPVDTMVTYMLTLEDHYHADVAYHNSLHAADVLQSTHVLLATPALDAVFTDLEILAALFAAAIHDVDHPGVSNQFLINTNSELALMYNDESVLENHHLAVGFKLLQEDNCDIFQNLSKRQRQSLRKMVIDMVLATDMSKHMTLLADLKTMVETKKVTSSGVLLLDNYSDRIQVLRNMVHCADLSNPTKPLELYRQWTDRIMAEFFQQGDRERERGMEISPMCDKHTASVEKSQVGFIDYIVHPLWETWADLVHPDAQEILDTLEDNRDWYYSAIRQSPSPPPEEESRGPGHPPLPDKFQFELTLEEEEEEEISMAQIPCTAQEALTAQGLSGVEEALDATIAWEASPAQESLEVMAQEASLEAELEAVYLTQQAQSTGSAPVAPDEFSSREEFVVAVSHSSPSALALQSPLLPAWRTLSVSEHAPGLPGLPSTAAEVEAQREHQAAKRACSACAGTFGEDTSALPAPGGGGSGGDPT
Method: as §1

[8] = biological target: T6, PDE4D (Homo sapiens, UniProt Q08499); assay: PDE enzymatic activity, HTRF cAMP dynamic test; assay type: biochemical; details: 10 μM and 30 μM; compared with DMSO control; n=6; FIG. 1D
T6 construct: purchased BPS bioscience
T6 sequence (Q08499 whole entry): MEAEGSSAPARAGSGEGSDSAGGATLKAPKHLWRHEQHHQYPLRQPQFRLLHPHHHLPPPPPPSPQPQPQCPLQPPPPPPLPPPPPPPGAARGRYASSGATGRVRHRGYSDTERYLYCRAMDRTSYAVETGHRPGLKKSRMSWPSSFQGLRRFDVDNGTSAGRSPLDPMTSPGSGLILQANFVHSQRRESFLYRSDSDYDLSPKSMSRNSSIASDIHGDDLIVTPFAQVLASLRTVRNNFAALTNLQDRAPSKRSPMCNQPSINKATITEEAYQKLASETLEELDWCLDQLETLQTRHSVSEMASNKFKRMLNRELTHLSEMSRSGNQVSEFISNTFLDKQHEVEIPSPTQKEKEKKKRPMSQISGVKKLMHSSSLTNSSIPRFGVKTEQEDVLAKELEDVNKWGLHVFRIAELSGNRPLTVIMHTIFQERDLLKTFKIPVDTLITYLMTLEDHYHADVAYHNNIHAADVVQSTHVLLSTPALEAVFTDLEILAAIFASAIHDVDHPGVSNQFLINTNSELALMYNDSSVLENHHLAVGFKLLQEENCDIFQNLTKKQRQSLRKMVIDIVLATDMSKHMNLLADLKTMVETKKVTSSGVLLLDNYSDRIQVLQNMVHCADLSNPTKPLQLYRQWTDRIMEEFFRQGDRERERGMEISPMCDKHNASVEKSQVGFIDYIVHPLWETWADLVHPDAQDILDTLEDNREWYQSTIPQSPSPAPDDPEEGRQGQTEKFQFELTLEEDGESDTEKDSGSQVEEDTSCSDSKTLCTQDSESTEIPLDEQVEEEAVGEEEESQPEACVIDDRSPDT
Method: as §1

PDE3B activity [3]: would not inhibit
PDE4C activity [4]: significantly inhibit PDE4C activity
PDE4B activity [5]: significantly inhibit PDE4B activity
PDE7A activity [6]: would not inhibit
PDE4A activity [7]: significantly inhibit PDE4A activity
PDE4D activity [8]: significantly inhibit PDE4D activity
Compound: CN(C)C(=O)c1cc2cnc(Nc3ccc(N4CCNCC4)cn3)nc2n1C1CCCC1 [Ribociclib, 7-Cyclopentyl-N,N-dimethyl-2-{[5-(1-piperazinyl)-2-pyridinyl]amino}-7H-pyrrolo[2,3-d]pyrimidine-6-carboxamide]
generation of superoxide anion [1]: significantly restrict the generation of superoxide anion
psoriasis-like symptoms ([2]; 10 mg/kg of the body weight): can improve or cure the psoriasis-like symptoms
psoriasis-like symptoms ([2]; 20 mg/kg of the body weight): can improve or cure the psoriasis-like symptoms
